Data set [1] relates to passive cutaneous anaphylaxis (PCA). Kind of data set: anti-allergic action, passive cutaneous anaphylaxis (PCA) model in rats. The class given is in vivo. To be noted: for times more active than Comparative Compound V1 / R.A. (relative activity): PCA in rats; for times more active than Comparative Compound V1: after oral administration; for R.A. (relative activity): relative to V1 (=1); for ED50: Rattus norvegicus, dose which reduces diameter of color patch by 50% vs non-medicated controls, read-out: Inhibition of PCA in rats (oral), ED 50%. The method, then: The anti-allergic action was tested on rats, using the passive cutaneous anaphylaxis (PCA) model.
Narcotized male rats (100-140 g) are sensitized by intradermal injection (into the shaved dorsal skin) of 0.1 ml of an ovalbumin antiserum. After a sensitization period of about 48 hours, the treatment (intraperitoneal or oral administration) is carried out with various dosages (10 animals/dose)of the test substances. 15-20 minutes after treatment, an antigen/Evans blue mixture (10 mg/kg of ovalbumin in 2% strength Evans blue solution) is intravenously injected into the test animals. 30 minutes later, the animals are sacrificed, the dorsal skin is removed and the diameter of the circular blue coloration is measured on the inner surface. The size of the color patches of untreated control animals can be standardized. Anti-allergic substances reduce the diameter of the color patch by an amount dependent on the dose. The ED 50% is quoted as the dose which reduces the diameter of the color patch by 50% relative to that of non-medicated control animals.

A short description of data set [2]: acute toxicity (LD 50), mice, intraperitoneal. To be noted: mouse, in vivo, ip, NMRI mice, 14 days post-observation. The procedure: (§1) In addition to the anti-allergic action, the acute toxicity was determined for intraperitoneal administration, using groups of 2 NMRI mice, each weighing 20-26 g, and for oral administration, using groups of 2 Sprague-Dawley rats, each weighing 120-150 g. The LD 50 was determined on groups of 10 NMRI mice, each weighing 20-26 g, after intraperitoneal administration. The post-observation period was 14 days.

The nature of data set [3]: acute toxicity, rats, oral. To be noted: rat, in vivo, Sprague-Dawley rats, 14 days post-observation, read-out: LD 50, rats oral. The method, then:
as §1

Data on 6 compounds can be found in patent US4407810A, “Thiazol-2-yl-oxamic acid derivatives, and therapeutic agents containing these compounds” (BASF Aktiengesellschaft, priority 1980, dated 1983).

For the compound `CCOCCOC(=O)C(=O)Nc1nc(-c2ccccc2)cs1` [Example 9, 2-Ethoxyethyl N-(4-phenyl-thiazol-2-yl)-oxamate], in data set [1], the “times more active than Comparative Compound V1” value came out at 227 times. The “R.A. (relative activity)” value in data set [1] (oral) was 227. Moreover, the ED50 in data set [1] (rats, oral) was 0.0382 mg/kg. For the same compound, the results for the LD50 at 336 h in data set [2] and in data set [3] were 956 mg/kg and over 2150 mg/kg, respectively.

Take `COCCOCCOC(=O)C(=O)Nc1nc(-c2ccccc2)cs1` [Example 11, 2-(ω-Methoxyethyleneoxy)-ethyl N-(4-phenyl-thiazol-2-yl)-oxamate]: the “R.A. (relative activity)” value in data set [1] (oral) is 4.01. Besides, the ED50 in data set [1] (rats, oral) amounted to 2.16 mg/kg. The LD50 at 336 h is 705 mg/kg in data set [2] and over 2150 mg/kg in data set [3].

With `CCOC(=O)C(=O)Nc1nc(-c2ccccc2)cs1` [Example V1, ethyl N-(4-phenyl-thiazol-2-yl)-oxamate, reference compound], in data set [1] (oral), the “R.A. (relative activity)” value was 1. In addition, in data set [1] (rats, oral), the ED50 came out at 8.67 mg/kg. For the same compound, the results for the LD50 at 336 h in data set [2] and in data set [3] were about 681 mg/kg and over 2150 mg/kg, respectively.

Regarding `CCOCCOC(=O)C(=O)Nc1nc(-c2ccc(OC)cc2)cs1` [Example 14, 2-Ethoxyethyl N-[4-(4-methoxyphenyl)-thiazol-2-yl]-oxamate], the “R.A. (relative activity)” value in data set [1] (oral) turned out to be 14.0. The ED50 in data set [1] (rats, oral) stood at 0.619 mg/kg. The LD50 at 336 h in data set [2] was about 1000 mg/kg.

Take `O=C(O)c1cc(=O)c2c(OCC(O)COc3cccc4oc(C(=O)O)cc(=O)c34)cccc2o1` [Cromolyne, reference compound]: the ED50 in data set [1] (rats, oral) is 100 mg/kg. In addition, in data set [1] (rats, oral, up to 100 mg/kg), the “activity in PCA (in words)” value was “inactive”. The LD50 at 336 h in data set [3] is over 2150 mg/kg.

In the case of `COCCOC(=O)C(=O)Nc1nc(-c2ccccc2)cs1` [Example 7, 2-Methoxyethyl N-(4-phenyl-thiazol-2-yl)-oxamate], in data set [1], the “times more active than Comparative Compound V1” value came to 3.87 times. Moreover, the “R.A. (relative activity)” value in data set [1] (oral) is given as 3.87. Also, the ED50 in data set [1] (rats, oral) was found to be 2.24 mg/kg. Further, the LD50 at 336 h in data set [2] is 655 mg/kg; in data set [3] it was over 2150 mg/kg.
